Measurements as given in patent US9662318B2, “Bitopic muscarinic agonists and antagonists and methods of synthesis and use thereof” (BARRY UNIVERSITY, INC., priority 2012, dated 2017).
Counter-ions that a name gives are not always drawn.

How the values were obtained:
M3 muscarinic receptor [1] = target: T1, M3 muscarinic receptor (Homo sapiens, UniProt P20309); assay: Accumulation of inositol phosphates in CHO cells; type: cell-based; settings: ligand 0.1 mM, no carbachol
T1 construct: host or cells: Chinese hamster ovary cells
T1 sequence (P20309 whole entry): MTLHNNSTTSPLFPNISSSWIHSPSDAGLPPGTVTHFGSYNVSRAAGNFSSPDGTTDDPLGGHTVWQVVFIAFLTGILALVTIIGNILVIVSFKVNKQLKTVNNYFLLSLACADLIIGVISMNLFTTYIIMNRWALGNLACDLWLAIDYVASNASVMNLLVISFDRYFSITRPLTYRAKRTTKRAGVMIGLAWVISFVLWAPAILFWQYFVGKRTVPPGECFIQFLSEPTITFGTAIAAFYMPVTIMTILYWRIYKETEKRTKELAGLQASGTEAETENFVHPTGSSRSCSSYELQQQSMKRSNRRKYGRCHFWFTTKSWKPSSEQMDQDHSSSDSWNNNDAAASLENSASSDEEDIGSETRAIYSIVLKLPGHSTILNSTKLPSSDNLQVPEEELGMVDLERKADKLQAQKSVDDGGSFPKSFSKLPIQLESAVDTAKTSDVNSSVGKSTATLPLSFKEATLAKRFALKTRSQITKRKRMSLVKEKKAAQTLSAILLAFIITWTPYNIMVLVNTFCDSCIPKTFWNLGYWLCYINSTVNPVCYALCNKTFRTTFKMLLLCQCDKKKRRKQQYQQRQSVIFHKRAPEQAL
Procedure: (§3) Chinese hamster ovary cells stably transfected with the genes of human variants of muscarinic receptors were purchased from Missouri S&T cDNA Resource Center (Rolla, Mo., USA). […] Cells were grown to confluency in 75 cm^2 flasks in Dulbecco's modified Eagle's medium supplemented with 10% fetal bovine serum and 2 million of cells were subcultured to 100 mm Petri dishes. Medium was supplemented with 5 mM butyrate for the last 24 hours of cultivation to increase receptor expression.
(§4) Inositolphosphates formation was determined in cells pre-labeled overnight by 0.5 μM [^3H]myo-inositol in 0.3 mL of DMEM (3 μCi/ml) at 37° C. […] Incubation was stopped by removal of incubation buffer and addition 0.2 mL 20% trichloracetic acid (TCA). After 1 h incubation at 4° C., 100 μL, of TCA extracts were taken for measurement. Rest of the TCA was removed, and TCA precipitates were washed with 200 μL TCA and dissolved in 200 μL of 1 M NaOH. After 1 h incubation at 4° C., 100 μL, of NaOH lysates were taken for measurement. Radioactivity in TCA extracts and NaOH lysates were determined by liquid scintillation counting. The rate of inositolphosphates accumulation was calculated as a percentage of the soluble (released) inositolphosphates from the total incorporated radioactivity (sum of radioactivity in NaOH lysates and TCA extracts).
(§5) EC50 values are expressed as negative logarithms and EMAX values as folds over basal, Table 7.

M3 muscarinic receptor [2] = target: T1, M3 muscarinic receptor; assay: Competition with [3H]NMS (equilibrium binding, CHO membranes); settings: read-out: Binding Equilibrium Constants (expressed as pKI) (converted)
Procedure: (§1) All radioligand binding experiments were optimized and carried out as described earlier. Briefly, membranes were incubated in 96-well plates at 30° C. in the incubation medium described. […] Dissociation was initiated by addition of atropine to final concentration of 5 Tested ligands in final concentration of 100 μM were added concurrently with atropine. Incubations were terminated by filtration through Whatman GF/C glass fiber filters (Whatman) using a Brandel cell harvester (Brandel, Gaithersburg, Md., USA). Filters were dried in vacuum for 1 h while heated at 80° C. and then solid scintillator Meltilex A was melted on filters (105° C., 90 s) using a hot plate. The filters were cooled and counted in Wallac Microbeta scintillation counter.
(§2) Inhibition constant KI was calculated as: […]

M1 muscarinic receptor [3] = target: T2, M1 muscarinic receptor (Homo sapiens, UniProt P11229); assay: as above; settings: for Ki: read-out: Binding Equilibrium Constants (expressed as pKI) (converted)
T2 sequence (P11229 1-460): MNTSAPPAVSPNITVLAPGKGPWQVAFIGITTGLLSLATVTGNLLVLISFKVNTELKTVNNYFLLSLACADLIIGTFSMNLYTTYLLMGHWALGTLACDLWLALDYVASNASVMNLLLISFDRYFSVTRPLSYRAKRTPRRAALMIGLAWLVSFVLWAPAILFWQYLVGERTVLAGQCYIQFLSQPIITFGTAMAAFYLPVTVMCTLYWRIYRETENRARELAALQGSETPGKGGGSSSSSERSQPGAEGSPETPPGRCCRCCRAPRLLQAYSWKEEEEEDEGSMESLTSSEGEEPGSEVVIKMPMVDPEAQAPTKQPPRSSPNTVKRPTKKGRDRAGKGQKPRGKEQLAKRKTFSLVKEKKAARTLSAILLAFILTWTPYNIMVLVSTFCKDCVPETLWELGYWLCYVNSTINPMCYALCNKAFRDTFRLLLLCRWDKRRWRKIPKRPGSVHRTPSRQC
Procedure: as §1, §2

M4 muscarinic receptor [4] = target: T3, M4 muscarinic receptor (Homo sapiens, UniProt P08173); assay: as above; settings: read-out: Binding Equilibrium Constants (expressed as pKI) (converted)
T3 construct: host or cells: Chinese hamster ovary cells
T3 sequence (P08173 1-479): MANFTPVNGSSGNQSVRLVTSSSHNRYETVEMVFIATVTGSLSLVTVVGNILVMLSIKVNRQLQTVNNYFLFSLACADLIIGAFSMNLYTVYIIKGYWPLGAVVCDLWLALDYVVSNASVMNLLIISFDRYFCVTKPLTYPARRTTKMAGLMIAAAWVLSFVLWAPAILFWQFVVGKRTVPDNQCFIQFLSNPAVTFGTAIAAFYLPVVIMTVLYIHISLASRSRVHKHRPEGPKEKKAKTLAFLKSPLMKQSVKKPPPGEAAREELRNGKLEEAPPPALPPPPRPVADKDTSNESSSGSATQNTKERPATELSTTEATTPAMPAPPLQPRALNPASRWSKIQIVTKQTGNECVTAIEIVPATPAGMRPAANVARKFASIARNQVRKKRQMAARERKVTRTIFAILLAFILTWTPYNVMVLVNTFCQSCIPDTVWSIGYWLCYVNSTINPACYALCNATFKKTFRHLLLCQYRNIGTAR
Procedure: as §1, §2

M4 muscarinic receptor [5] = target: T3, M4 muscarinic receptor; assay: Accumulation of inositol phosphates in CHO cells; type: cell-based; settings: for Effect of ligands on basal activity (accumulation of inositol phosphates as percent of accumulation in the absence of the ligand): M4, ligand 0.1 mM, no carbachol
Procedure: as §3, §4, §5

[6] = test system: M1-M5 muscarinic receptors; assay: Accumulation of inositol phosphates, statements over all subtypes; type: cell-based, human; settings: for basal functional response (in the absence of carbachol): 0.1 mM, at all receptor subtypes; for functional selectivity of antagonism: from shifts in carbachol EC50, Table 6
Procedure: Antagonism of tested compounds was determined at single high concentration of 0.1 mM.

M5 muscarinic receptor [7] = target: T4, M5 muscarinic receptor (Homo sapiens, UniProt P08912); assay: Competition with [3H]NMS (equilibrium binding, CHO membranes); settings: read-out: Binding Equilibrium Constants (expressed as pKI) (converted)
T4 construct: host or cells: CHO (Chinese hamster ovary) cells, stably transfected
T4 sequence (P08912 1-532): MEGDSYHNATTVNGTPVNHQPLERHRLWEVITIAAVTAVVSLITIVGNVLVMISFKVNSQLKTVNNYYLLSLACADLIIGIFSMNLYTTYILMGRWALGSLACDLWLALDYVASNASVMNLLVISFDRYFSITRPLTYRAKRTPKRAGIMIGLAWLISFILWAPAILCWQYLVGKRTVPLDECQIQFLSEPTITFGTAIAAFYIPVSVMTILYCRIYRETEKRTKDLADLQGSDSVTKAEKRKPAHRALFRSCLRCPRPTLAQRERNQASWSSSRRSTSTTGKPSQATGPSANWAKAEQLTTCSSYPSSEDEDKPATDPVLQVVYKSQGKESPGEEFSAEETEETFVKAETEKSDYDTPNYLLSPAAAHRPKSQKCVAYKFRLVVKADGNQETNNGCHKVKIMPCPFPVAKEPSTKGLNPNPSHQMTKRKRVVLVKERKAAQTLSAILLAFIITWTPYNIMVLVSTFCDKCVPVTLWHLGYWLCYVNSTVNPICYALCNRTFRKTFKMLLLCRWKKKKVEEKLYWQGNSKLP
Procedure: as §1, §2

M5 muscarinic receptor [8] = target: T4, M5 muscarinic receptor; assay: Accumulation of inositol phosphates in CHO cells; type: cell-based; settings: for Effect of ligands on basal activity (accumulation of inositol phosphates as percent of accumulation in the absence of the ligand): M5, ligand 0.1 mM, no carbachol
Procedure: as §3, §4, §5

M1 muscarinic receptor [9] = target: T2, M1 muscarinic receptor; assay: Accumulation of inositol phosphates in CHO cells; type: cell-based; settings: ligand 0.1 mM, no carbachol
Procedure: as §3, §4, §5

[10] = test system: M1-M5 muscarinic receptors; assay: Competition with [3H]NMS, statements over all subtypes; type: binding, human; settings: versus other subtypes; from pKI, Table 4
M5 muscarinic receptor [11] = target: T4, M5 muscarinic receptor; assay: [3H]NMS saturation binding; settings: M5 CHO membranes; binding sites per mg of membrane protein

Structure (SMILES) | Effect of ligands on basal activity (accumulation of inositol phosphates as percent of accumulation in the absence of the ligand) (M3 muscarinic receptor [1]) [%] | Ki (M3 muscarinic receptor [2]) [µM] | Ki (M1 muscarinic receptor [3]) [µM] | Ki (M4 muscarinic receptor [4]) [µM] | Effect of ligands on basal activity (accumulation of inositol phosphates as percent of accumulation in the absence of the ligand) (M4 muscarinic receptor [5]) [%] | basal functional response (in the absence of carbachol) [6] | functional selectivity of antagonism [6] | Ki (M5 muscarinic receptor [7]) [µM] | higher affinity for M1 receptor (M1 muscarinic receptor [3]; versus other subtypes, from pKI, Table 4) | Effect of ligands on basal activity (accumulation of inositol phosphates as percent of accumulation in the absence of the ligand) (M5 muscarinic receptor [8]) [%] | Effect of ligands on basal activity (accumulation of inositol phosphates as percent of accumulation in the absence of the ligand) (M1 muscarinic receptor [9]) [%] | higher affinity for the M2 and M5 receptors [10] | BMAX (M5 muscarinic receptor [11]) [pmol/mg] | EMAX (M5 muscarinic receptor [8]; M5 CHO cells, accumulation of inositol phosphates) [fold over basal] | EMAX (M4 muscarinic receptor [5]; M4 CHO cells, accumulation of inositol phosphates) [fold over basal]
CCCCOc1ccc(C(=O)OCCN2CC=CCC2)cc1 [Compound 9a, 2-(1,2,5,6-tetrahydropyridine-N-ethyl)-4-butoxybenzoate hydrochloride] | 100 ± 1 | 7.94 | 6.31 | 12.6 | 100 ± 6 |  |  |  |  |  |  |  |  |  | 
CCCCc1ccc(C(=O)OCCN2CC=CCC2)cc1 [Compound 9b, 2-(1,2,5,6-tetrahydropyridine-N-ethyl)-4-butylbenzoate hydrochloride] | 81 ± 5 | 15.8 | 7.94 | 25.1 | 73 ± 6 | lowered basal functional response | M1/M4 functionally selective antagonists | 25.1 | two to three-fold | 88 ± 3 | 85 ± 4 |  |  |  | 
CCCCOc1ccc(C(=O)OCC[N+]2(C)CC=CCC2)cc1 (stereo not drawn) [Compound 10a, 2-(1,2,5,6-tetrahydropyridine-N-ethyl)-4-butoxybenzoate N-methyl iodide] | 74 ± 3 | 6.31 | 2.51 | 7.94 | 74 ± 7 | lowered basal functional response |  | 3.16 |  | 89 ± 3 | 83 ± 3 |  |  |  | 
CCCCc1ccc(C(=O)OCC[N+]2(C)CC=CCC2)cc1 (stereo not drawn) [Compound 10b, 2-(1,2,5,6-tetrahydropyridine-N-ethyl)-4-butylbenzoate N-methyl iodide] |  | 3.98 | 2.51 | 3.98 |  |  |  | 1.58 |  | 90 ± 10 | 98 ± 9 |  |  |  | 
CCCCCCOc1ccc(C(=O)OCC[N+]2(C)CC=CCC2)cc1 (stereo not drawn) [Compound 10c, 2-(1,2,5,6-tetrahydropyridine-N-ethyl)-4-hexoxybenzoate N-methyl iodide] | 101 ± 1 | 0.398 |  | 0.398 | 100 ± 2 |  |  | 0.158 |  | 101 ± 1 | 101 ± 1 | one to three fold |  |  | 
CCCCc1ccc(C(=O)OCC[N+]2(C)CCCCC2)cc1 [Compound 13b, 2-(N-Piperidineethyl) p-butylbenzoyl ester N-methyl iodide] | 104 ± 4 | 2.04 | 3.16 | 3.98 | 107 ± 4 |  | M1/M5 functionally selective | 2.45 |  | 104 ± 4 | 104 ± 4 |  |  |  | 
CCCCc1ccc(C(=O)OCCN2CCCCC2)cc1 [Compound 14b] | 103 ± 3 | 6.31 | 3.98 | 9.77 | 106 ± 1 |  | M1/M3 functionally selective antagonist | 5.01 |  | 103 ± 3 | 103 ± 3 |  |  |  | 
C[N+]1(C)[C@@H]2C[C@@H](OC(=O)[C@H](CO)c3ccccc3)C[C@H]1[C@@H]1O[C@@H]12 [NMS, N-methyl scopolamine] |  |  |  |  |  |  |  |  |  |  |  |  | 1.0 ± 0.1 |  | 
C[N+](C)(C)CCOC(N)=O [carbachol, Carbachol, reference compound] |  |  |  |  |  |  |  |  |  |  |  |  |  | 2.5 ± 0.2 | 3.3 ± 0.3
